Laboratory results from US20140303164A1, “THERAPEUTIC COMPOUNDS” (Gilead Sciences, Inc., priority 2013, published 2014).

Experiments:
HIV-IIIb = assay: Test A: Antiviral Assay in MT4 Cells; type: cell-based, HIV-1; conditions: Human immunodeficiency virus 1, IIIB, MT4, 120 h; for inhibition at 0.2 µM: read-out: % inhibition at 0.2 μM; for inhibition at 2 µM: read-out: % inhibition at 2 μM
Experimental: Test A: Antiviral Assay in MT4 Cells
MT-4 cells were next mixed with HIV-IIIb at an m.o.i of 0.003 for 1 hour, after which time 35 μL of virus/cell mixture (2000 cells) was immediately added to each well containing 40 μL of diluted compound. The plates were then incubated at 37° C. for 5 days. […] Cell lysis was carried out by incubating at room temperature for 10 min and then chemiluminescence was read.

[1] = Test B: Cytotoxicity Assay; type: cell-based; conditions: human, uninfected MT-4 cells, same protocol as Test A
Method in brief: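 Uninfected MT-4 cells (2000 per well) incubated with diluted compound at 37° C. for 5 days, following the antiviral protocol without HIV-IIIb.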

Structure (SMILES)	inhibition at 0.2 µM (HIV-IIIb) [%]	inhibition at 2 µM (HIV-IIIb) [%]	CC50 at 5 days [1] [µM]
Cn1nc(NC(=O)c2ccno2)c2c(Cl)ccc(-c3ccc(C#CC(C)(C)O)nc3[C@H](Cc3cc(F)cc(F)c3)NC(=O)Cn3nc(C(F)F)c4c3C(F)(F)[C@@H]3C[C@H]43)c21 [Compound 87, N-(4-chloro-7-(2-((S)-1-(2-((3b-S,4aR)-3-(difluoromethyl)-5,5-difluoro-3b,4,4a,5-tetrahydro-1H-cyclopropa[3,4]cyclopenta[1,2-c]pyrazol-1-yl)acetamido)-2-(3,5-difluorophenyl)ethyl)-6-(3-hydroxy-3-methylbut-1-yn-1-yl)pyridin-3-yl)-1-methyl-1H-indazol-3-yl)isoxazole-5-carboxamide]	95	96	6.8
CNc1nn(C)c2c(-c3ccc(C#CC(C)(C)O)nc3[C@H](Cc3cc(F)cc(F)c3)NC(=O)Cn3nc(C(F)F)c4c3C(F)(F)[C@@H]3C[C@H]43)cccc12 [Compound 68G, 2-((3b-S,4aR)-3-(difluoromethyl)-5,5-difluoro-3b,4,4a,5-tetrahydro-1H-cyclopropa[3,4]cyclopenta[1,2-c]pyrazol-1-yl)-N—((S)-2-(3,5-difluorophenyl)-1-(6-(3-hydroxy-3-methylbut-1-yn-1-yl)-3-(1-methyl-3-(methylamino)-1H-indazol-7-yl)pyridin-2-yl)ethyl)acetamide]	96	96	9.64
Cn1nc(O)c2cccc(-c3ccc(C#CC(C)(C)O)nc3[C@H](Cc3cc(F)cc(F)c3)NC(=O)Cn3nc(C(F)F)c4c3C(F)(F)[C@@H]3C[C@H]43)c21 [Compound 107B, 2-((3bS,4aR)-3-(difluoromethyl)-5,5-difluoro-3b,4,4a,5-tetrahydro-1H-cyclopropa[3,4]cyclopenta[1,2-c]pyrazol-1-yl)-N—((S)-2-(3,5-difluorophenyl)-1-(6-(3-hydroxy-3-methylbut-1-yn-1-yl)-3-(1-methyl-3-oxo-2,3-dihydro-1H-indazol-7-yl)pyridin-2-yl)ethyl)acetamide]	95	95	5.3
CCC(=O)Nc1nn(C)c2c(-c3ccc(C#CC(C)(C)O)nc3[C@H](Cc3cc(F)cc(F)c3)NC(=O)Cn3nc(C(F)F)c4c3C(F)(F)[C@@H]3C[C@H]43)ccc(Cl)c12 [Compound 95, N-(4-chloro-7-(2-((S)-1-(2-((3b-S,4aR)-3-(difluoromethyl)-5,5-difluoro-3b,4,4a,5-tetrahydro-1H-cyclopropa[3,4]cyclopenta[1,2-c]pyrazol-1-yl)acetamido)-2-(3,5-difluorophenyl)ethyl)-6-(3-hydroxy-3-methylbut-1-yn-1-yl)pyridin-3-yl)-1-methyl-1H-indazol-3-yl)propionamide]	93	93	6.51
Cc1nc(NS(C)(=O)=O)c2cccc(-c3ccc(C#CC(C)(C)O)nc3[C@H](Cc3cc(F)cc(F)c3)NC(=O)Cn3nc(C(F)(F)F)c4c3C(F)(F)[C@@H]3C[C@H]43)n12 [Compound 121, 2-((3bS,4aR)-5,5-difluoro-3-(trifluoromethyl)-3b,4,4a,5-tetrahydro-1H-cyclopropa[3,4]cyclopenta[1,2-c]pyrazol-1-yl)-N—((S)-2-(3,5-difluorophenyl)-1-(6-(3-hydroxy-3-methylbut-1-yn-1-yl)-3-(3-methyl-1-(methylsulfonamido)imidazo[1,5-a]pyridin-5-yl)pyridin-2-yl)ethyl)acetamide]	46	98	9.18
C[C@H](O)C(=O)Nc1nn(C)c2c(-c3ccc(C#CC(C)(C)O)nc3[C@H](Cc3cc(F)cc(F)c3)NC(=O)Cn3nc(C(F)F)c4c3C(F)(F)[C@@H]3C[C@H]43)ccc(Cl)c12 [Compound 103, (S)—N-(4-chloro-7-(2-((S)-1-(2-((3bS,4aR)-3-(difluoromethyl)-5,5-difluoro-3b,4,4a,5-tetrahydro-1H-cyclopropa[3,4]cyclopenta[1,2-c]pyrazol-1-yl)acetamido)-2-(3,5-difluorophenyl)ethyl)-6-(3-hydroxy-3-methylbut-1-yn-1-yl)pyridin-3-yl)-1-methyl-1H-indazol-3-yl)-2-hydroxypropanamide]	100	100	6.79
Cn1nc(NS(C)(=O)=O)c2c(Cl)ccc(-c3ccc(C#CC(C)(O)CO)nc3[C@H](Cc3cc(F)cc(F)c3)NC(=O)Cn3nc(C(F)(F)F)c4c3C(F)(F)[C@@H]3C[C@H]43)c21 (stereo partly drawn) [Compound 151, N-((1S)-1-(3-(4-chloro-1-methyl-3-(methylsulfonamido)-1H-indazol-7-yl)-6-(3,4-dihydroxy-3-methylbut-1-yn-1-yl)pyridin-2-yl)-2-(3,5-difluorophenyl)ethyl)-2-((3bS,4aR)-5,5-difluoro-3-(trifluoromethyl)-3b,4,4a,5-tetrahydro-1H-cyclopropa[3,4]cyclopenta[1,2-c]pyrazol-1-yl)acetamide]	92	92	25.3
Cn1nc(NS(C)(=O)=O)c2c(F)ccc(-c3ccc(C#CC(C)(C)O)nc3[C@H](Cc3cc(F)cc(F)c3)NC(=O)Cn3nc(C(F)(F)F)c4c3C(F)(F)[C@@H]3C[C@H]43)c21 [Compound 132C, 2-((3bS,4aR)-5,5-difluoro-3-(trifluoromethyl)-3b,4,4a,5-tetrahydro-1H-cyclopropa[3,4]cyclopenta[1,2-c]pyrazol-1-yl)-N—((S)-2-(3,5-difluorophenyl)-1-(3-(4-fluoro-1-methyl-3-(methylsulfonamido)-1H-indazol-7-yl)-6-(3-hydroxy-3-methylbut-1-yn-1-yl)pyridin-2-yl)ethyl)acetamide]	92	92	24.2
Cn1nc(NS(C)(=O)=O)c2c(Cl)ccc(-c3ccc(-c4ncccn4)nc3[C@H](Cc3cc(F)cc(F)c3)NC(=O)Cn3nc(C(F)(F)F)c4c3C(F)(F)[C@@H]3C[C@H]43)c21 [Compound 176, N—((S)-1-(3-(4-chloro-1-methyl-3-(methylsulfonamido)-1H-indazol-7-yl)-6-(pyrimidin-2-yl)pyridin-2-yl)-2-(3,5-difluorophenyl)ethyl)-2-((3b-S,4aR)-5,5-difluoro-3-(trifluoromethyl)-3b,4,4a,5-tetrahydro-1H-cyclopropa[3,4]cyclopenta[1,2-c]pyrazol-1-yl)acetamide]	100	100	17.4
Cn1nc(NS(C)(=O)=O)c2c(Cl)ccc(-c3ccc(C#CCOCCO)nc3[C@H](Cc3cc(F)cc(F)c3)NC(=O)Cn3nc(C(F)(F)F)c4c3C(F)(F)[C@@H]3C[C@H]43)c21 [Compound 153, N—((S)-1-(3-(4-chloro-1-methyl-3-(methylsulfonamido)-1H-indazol-7-yl)-6-(3-(2-hydroxyethoxy)prop-1-yn-1-yl)pyridin-2-yl)-2-(3,5-difluorophenyl)ethyl)-2-((3b-S,4aR)-5,5-difluoro-3-(trifluoromethyl)-3b,4,4a,5-tetrahydro-1H-cyclopropa[3,4]cyclopenta[1,2-c]pyrazol-1-yl)acetamide]	98	98	18.6
Cn1nc(NS(C)(=O)=O)c2c(Cl)ccc(-c3cc(-c4ccccc4Cl)cnc3[C@H](Cc3cc(F)cc(F)c3)NC(=O)Cn3nc(C(F)F)c4c3C(F)(F)[C@@H]3C[C@H]43)c21 [Compound 181C, N—((S)-1-(3-(4-chloro-1-methyl-3-(methylsulfonamido)-1H-indazol-7-yl)-5-(2-chlorophenyl)pyridin-2-yl)-2-(3,5-difluorophenyl)ethyl)-2-((3b-S,4aR)-3-(difluoromethyl)-5,5-difluoro-3b,4,4a,5-tetrahydro-1H-cyclopropa[3,4]cyclopenta[1,2-c]pyrazol-1-yl)acetamide]	100	100	> 53.2
Cn1ncc2c(Cl)ccc(-c3ccc(C#CC(C)(C)O)nc3[C@H](Cc3cc(F)cc(F)c3)NC(=O)Cn3nc(C(F)F)c4c3C(F)(F)[C@@H]3C[C@H]43)c21 [Compound 137C, N—((S)-1-(3-(4-chloro-1-methyl-1H-indazol-7-yl)-6-(3-hydroxy-3-methylbut-1-yn-1-yl)pyridin-2-yl)-2-(3,5-difluorophenyl)ethyl)-2-((3b-S,4aR)-3-(difluoromethyl)-5,5-difluoro-3b,4,4a,5-tetrahydro-1H-cyclopropa[3,4]cyclopenta[1,2-c]pyrazol-1-yl)acetamide]	93	100	7.88
CC(C)(O)C#Cc1ncc(-c2ccc3c(c2)C(=O)NC3)c([C@H](Cc2cc(F)cc(F)c2)NC(=O)Cn2nc(C(F)F)c3c2C(F)(F)CCC3(F)F)n1 [Compound 21H, (S)-2-(3-(difluoromethyl)-4,4,7,7-tetrafluoro-4,5,6,7-tetrahydro-1H-indazol-1-yl)-N-(2-(3,5-difluorophenyl)-1-(2-(3-hydroxy-3-methylbut-1-yn-1-yl)-5-(3-oxoisoindolin-5-yl)pyrimidin-4-yl)ethyl)acetamide]	92	92	7.63
Cn1nc(NS(C)(=O)=O)c2c(Cl)ccc(-c3ccc(C#CC(C)(C)O)nc3[C@H](Cc3cc(F)cc(F)c3)NC(=O)Cc3c[nH]c4ccc(F)cc34)c21 [Compound 193, (S)—N-(1-(3-(4 chloro-1-methyl-3-(methylsulfonamido)-1H-indazol-7-yl)-6-(3-hydroxy-3-methylbut-1-yn-1-yl)pyridin-2-yl)-2-(3,5-difluorophenyl)ethyl)-2-(5-fluoro-1H-indol-3-yl)acetamide]	92	92	23.1
